From patent US11185531B2, “Arginine methyltransferase inhibitors and uses thereof” (Epizyme, Inc., priority 2013, dated 2021) come the findings set out here.

Test [1] has as its system mono-methyl arginine in RKO cells. The test is described as follows: RKO Methylation Assay, In Cell Western for mono-methyl arginine. Format: cell-based. As to conditions: Homo sapiens, 72 hours, percent activation of mono-methyl arginine signal. The text has this: RKO adherent cells were purchased from ATCC (American Type Culture Collection), Manassas, Va., USA. DMEM/Glutamax medium, penicillin-streptomycin, heat inactivated fetal bovine serum, 0.05% trypsin and D-PBS were purchased from Life Technologies, Grand Island, N.Y., USA. Odyssey blocking buffer, 800 CW goat anti-rabbit IgG (H+L) antibody, and Licor Odyssey infrared scanner were purchased from Licor Biosciences, Lincoln, Nebr., USA. Mono-methyl arginine antibody was purchased from Cell Signaling Technology, Danvers, Mass., USA. Methanol was purchased from VWR, Franklin, Mass., USA. 10% Tween 20 was purchased from KPL, Inc., Gaithersburg, Md., USA. DRAQ5 was purchased from Biostatus Limited, Leicestershire, UK.
RKO adherent cells were maintained in growth medium (DMEM/Glutamax medium supplemented with 10% v/v heat inactivated fetal bovine serum and 100 units/mL penicillin-streptomycin) and cultured at 37° C. under 5% CO2.
Cell Treatment, in Cell Western (ICW) for Detection of Mono-Methyl Arginine and DNA Content.
RKO cells were seeded in assay medium at a concentration of 20,000 cells per mL to a poly-D-lysine coated 384 well culture plate (BD Biosciences 356697) with 50 μL per well. Compound (100 nL) from a 96-well source plate was added directly to 384 well cell plate. Plates were incubated at 37° C., 5% CO2 for 72 hours. After three days of incubation, plates were brought to room temperature outside of the incubator for ten minutes and blotted on paper towels to remove cell media. 50 μL of ice cold 100% methanol was added directly to each well and incubated for 30 min at room temperature. After 30 min, plates were transferred to a Biotek EL406 plate washer and washed 2 times with 100 μL per well of wash buffer (IX PBS). Next 60 μL per well of Odyssey blocking buffer (Odyssey Buffer with 0.1% Tween 20 (v/v)) were added to each plate and incubated 1 hour at room temperature. Blocking buffer was removed and 20 μL per well of primary antibody was added (mono-methyl arginine diluted 1:200 in Odyssey buffer with 0.1% Tween 20 (v/v)) and plates were incubated overnight (16 hours) at 4° C. Plates were washed 5 times with 100 μL per well of wash buffer. Next 20 μL per well of secondary antibody was added (1:200 800 CW goat anti-rabbit IgG (H+L) antibody, 1:1000 DRAQ5 (Biostatus limited) in Odyssey buffer with 0.1% Tween 20 (v/v)) and incubated for 1 hour at room temperature. The plates were washed 5 times with 100 μL per well wash buffer then 2 times with 100 μL per well of water. Plates were allowed to dry at room temperature then imaged on the Licor Odyssey machine which measures integrated intensity at 700 nm and 800 nm wavelengths. Both 700 and 800 channels were scanned.
First, the ratio for each well was determined by:
Each plate included fourteen control wells of DMSO only treatment (minimum activation) as well as fourteen control wells for maximum activation treated with 20 μM of a reference compound. The average of the ratio values for each control type was calculated and used to determine the percent activation for each test well in the plate. Reference compound was serially diluted three-fold in DMSO for a total of nine test concentrations, beginning at 20 μM. Percent activation was determined and EC30 curves were generated using triplicate wells per concentration of compound.

In test [2] the target is T1, human PRMT8 (Homo sapiens, UniProt Q9NR22).
T1 construct: Full-length human PRMT8 (NM_019854.4) isoform 1 transcript clone; GST (N, cleaved yes); made in house; host or cells: E. coli BL21(DE3) Gold
Briefly: PRMT8 Biochemical Assay (3H-SAM Flashplate, peptide substrate). As to conditions: 30 min preincubation. The source says: Peptide representative of human histone H4 residues 31-45 was synthesized with an N-terminal linker-affinity tag motif and a C-terminal amide cap by 21st Century Biochemicals. The peptide was purified by high-performance liquid chromatography (HPLC) to greater than 95% purity and confirmed by liquid chromatography mass spectrometry (LC-MS). The sequence was Biot-Ahx-[…]-amide (SEQ ID NO:8).
The resulting construct encodes an N-terminal GST tag and a thrombin cleavage sequence
GST-tagged PRMT8 was eluted with 50 mM Tris, 2 mM glutathione, pH 7.8. Pooled fractions were cleaved by thrombin (10 U) and dialysed in buffer A. GST was removed by reloading the cleaved protein sample onto glutathione sepharose column and PRMT8 was collected in the flow-through fractions. PRMT8 was purified further by ceramic hydroxyapatite chromatography. The column was washed with 50 mM phosphate buffer, 100 mM NaCl, 5% glycerol, 5 mM 3-mercaptoethanol, pH 7.8 and PRMT8 was eluted by 100 mM phosphate in the same buffer. Protein was concentrated and buffer was exchanged to 50 mM Tris, 300 mM NaCl, 10% glycerol, 5 mM β-mercaptoethanol, pH 7.8 by ultrafiltration. The purity of recovered protein was 89%.
General Procedure for PRMT8 Enzyme Assays on Peptide Substrates.
The assays were all performed in a buffer consisting of 20 mM Bicine (pH=7.6), 1 mM TCEP, 0.005% BSG, and 0.002% Tween 20, prepared on the day of use. Compounds in 100% DMSO (1 ul) were spotted into a polypropylene 384-well V-bottom plates (Greiner) using a Platemate Plus outfitted with a 384-channel head (Thermo Scientific). DMSO (1 ul) was added to Columns 11, 12, 23, 24, rows A-H for the maximum signal control and 1 ul of SAH, a known product and inhibitor of PRMT8, was added to columns 11, 12, 23, 24, rows I-P for the minimum signal control. A cocktail (40 ul) containing the PRMT8 enzyme was added by Multidrop Combi (Thermo-Fisher). The compounds were allowed to incubate with PRMT8 for 30 min at room temperature, then a cocktail (10 ul) containing ^3H-SAM and peptide was added to initiate the reaction (final volume=51 ul). The final concentrations of the components were as follows: PRMT8 was 1.5 nM, ^3H-SAM was 50 nM, non-radiolabeled SAM was 550 nM, peptide was 150 nM, SAH in the minimum signal control wells was 1 mM, and the DMSO concentration was 2%. The assays were stopped by the addition of non-radiolabeled SAM (10 ul) to a final concentration of 400 uM, which dilutes the ^3H-SAM to a level where its incorporation into the peptide substrate is no longer detectable. 50 ul of the reaction in the 384-well polypropylene plate was then transferred to a 384-well Flashplate and the biotinylated peptides were allowed to bind to the streptavidin surface for at least 1 hour before being washed once with 0.1% Tween20 in a Biotek ELx405 plate washer. The plates were then read in a PerkinElmer TopCount plate reader to measure the quantity of ^3H-labeled peptide bound to the Flashplate surface, measured as disintegrations per minute (dpm) or alternatively, referred to as counts per minute (cpm).
Where dpm=disintegrations per minute, cmpd=signal in assay well, and min and max are the respective minimum and maximum signal controls.
Where top and bottom are the normally allowed to float, but may be fixed at 100 or 0 respectively in a 3-parameter fit. The Hill Coefficient normally allowed to float but may also be fixed at 1 in a 3-parameter fit. Y is the % inhibition and X is the compound concentration.

T1 sequence (Q9NR22 whole entry, canonical isoform): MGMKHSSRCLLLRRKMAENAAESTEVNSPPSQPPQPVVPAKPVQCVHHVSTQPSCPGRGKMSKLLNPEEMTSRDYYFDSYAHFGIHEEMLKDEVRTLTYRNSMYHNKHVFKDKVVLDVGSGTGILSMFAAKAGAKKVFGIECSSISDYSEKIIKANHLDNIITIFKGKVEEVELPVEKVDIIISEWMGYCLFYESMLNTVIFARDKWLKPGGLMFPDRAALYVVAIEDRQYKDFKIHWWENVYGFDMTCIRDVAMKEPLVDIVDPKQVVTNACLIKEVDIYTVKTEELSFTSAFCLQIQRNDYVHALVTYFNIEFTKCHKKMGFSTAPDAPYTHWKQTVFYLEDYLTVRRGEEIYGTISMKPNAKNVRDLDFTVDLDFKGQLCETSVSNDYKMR

As to `CNCCN(C)Cc1c[nH]nc1C1CCNCC1` [Compound 42], the EC30 (in general, the point of the concentration-response curve where the effect stands at 30%) in test [1] was > 12 µM. Further, in test [2], the IC50 (commonly the midpoint of a concentration-inhibition curve) was in the range of 0.101 to 1 µM.
